Assay results published in patent US20260365670A1, “EGFR INHIBITORS AND USES THEREOF” (DIZAL (JIANGSU) PHARMACEUTICAL CO., LTD., priority 2022, published 2026).
Like-named read-outs stand apart in the source and are kept apart here.

How the values were obtained:
EGFR (d746-750 C797S) = molecular target: T1, EGFR (d746-750 C797S) (Homo sapiens, UniProt P00533, C797S/DEL746-750); experiment: Inhibition of EGFR (d746-750 C797S) biochemical enzymatic activity (HTRF); settings: 1 mM ATP
T1 construct: purchased signalchem
T1 sequence (P00533 with tags, fused parts or gaps DEL746-750/C797S limits assumed): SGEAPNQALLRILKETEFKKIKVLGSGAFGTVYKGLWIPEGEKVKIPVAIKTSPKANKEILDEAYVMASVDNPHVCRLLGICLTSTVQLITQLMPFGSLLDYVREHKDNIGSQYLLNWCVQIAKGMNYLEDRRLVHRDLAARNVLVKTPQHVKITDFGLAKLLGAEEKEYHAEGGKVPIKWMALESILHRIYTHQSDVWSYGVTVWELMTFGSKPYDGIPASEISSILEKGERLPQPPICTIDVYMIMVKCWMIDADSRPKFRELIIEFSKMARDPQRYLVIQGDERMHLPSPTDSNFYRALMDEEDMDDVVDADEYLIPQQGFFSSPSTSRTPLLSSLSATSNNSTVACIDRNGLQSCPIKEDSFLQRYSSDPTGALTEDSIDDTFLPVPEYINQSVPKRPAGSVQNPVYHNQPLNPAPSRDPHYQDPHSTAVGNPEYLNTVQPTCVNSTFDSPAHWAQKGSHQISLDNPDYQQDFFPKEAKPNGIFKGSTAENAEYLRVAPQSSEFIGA
Procedure, shortened: (§1)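 For IC50 determination by four-parameter logistic fit, EDTA-quenched 1 h room-temperature reactions (1 mM ATP, 1 μM TK Substrate-biotin) were read by HTRF. The 665/615 nm emission ratio after 320 nm excitation served as the activity signal.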

EGFR L858R = molecular target: T2, EGFR L858R (Homo sapiens, UniProt P00533, L858R); experiment: Inhibition of EGFR L858R biochemical enzymatic activity (HTRF); settings: 1 mM ATP
T2 construct: purchased Carna Bio
T2 sequence (P00533 25-1210 L858R): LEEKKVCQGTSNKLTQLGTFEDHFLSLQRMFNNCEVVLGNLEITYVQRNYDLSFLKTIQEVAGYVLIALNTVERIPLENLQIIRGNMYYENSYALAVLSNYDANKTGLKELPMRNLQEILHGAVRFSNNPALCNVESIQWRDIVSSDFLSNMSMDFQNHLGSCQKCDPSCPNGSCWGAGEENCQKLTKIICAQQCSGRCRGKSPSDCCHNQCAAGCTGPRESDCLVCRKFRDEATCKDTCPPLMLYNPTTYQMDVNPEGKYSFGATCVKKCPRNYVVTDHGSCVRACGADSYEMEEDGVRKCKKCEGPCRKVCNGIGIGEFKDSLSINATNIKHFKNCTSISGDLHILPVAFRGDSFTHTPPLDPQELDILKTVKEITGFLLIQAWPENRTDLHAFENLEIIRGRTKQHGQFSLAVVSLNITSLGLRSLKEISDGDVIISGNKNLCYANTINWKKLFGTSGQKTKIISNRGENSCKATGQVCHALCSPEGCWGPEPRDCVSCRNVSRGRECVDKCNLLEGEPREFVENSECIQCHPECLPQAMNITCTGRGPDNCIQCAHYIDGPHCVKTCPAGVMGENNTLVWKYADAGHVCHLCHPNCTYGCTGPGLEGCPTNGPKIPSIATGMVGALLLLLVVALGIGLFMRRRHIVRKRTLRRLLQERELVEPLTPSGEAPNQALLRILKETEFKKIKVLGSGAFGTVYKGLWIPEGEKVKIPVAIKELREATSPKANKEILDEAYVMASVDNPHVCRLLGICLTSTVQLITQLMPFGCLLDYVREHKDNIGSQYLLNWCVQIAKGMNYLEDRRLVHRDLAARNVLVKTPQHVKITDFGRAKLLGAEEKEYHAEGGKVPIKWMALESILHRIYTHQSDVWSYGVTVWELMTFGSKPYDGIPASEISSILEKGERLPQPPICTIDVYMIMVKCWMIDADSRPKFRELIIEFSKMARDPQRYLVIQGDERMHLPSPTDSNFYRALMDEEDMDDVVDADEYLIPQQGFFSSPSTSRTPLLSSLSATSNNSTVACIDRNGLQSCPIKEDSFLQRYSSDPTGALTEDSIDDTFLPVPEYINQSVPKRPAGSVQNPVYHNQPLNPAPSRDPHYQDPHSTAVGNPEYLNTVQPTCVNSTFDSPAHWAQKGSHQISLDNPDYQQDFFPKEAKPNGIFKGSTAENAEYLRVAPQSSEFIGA
Procedure, shortened: as §1

EGFR Exon19Del = molecular target: T3, EGFR Exon19Del (Homo sapiens, UniProt P00533, DEL746-750); experiment: Inhibition of EGFR Exon19Del biochemical enzymatic activity (HTRF); settings: read-out: IC50 @Del19
T3 construct: purchased Carna Bio
T3 sequence (P00533 with tags, fused parts or gaps DEL746-750 limits assumed): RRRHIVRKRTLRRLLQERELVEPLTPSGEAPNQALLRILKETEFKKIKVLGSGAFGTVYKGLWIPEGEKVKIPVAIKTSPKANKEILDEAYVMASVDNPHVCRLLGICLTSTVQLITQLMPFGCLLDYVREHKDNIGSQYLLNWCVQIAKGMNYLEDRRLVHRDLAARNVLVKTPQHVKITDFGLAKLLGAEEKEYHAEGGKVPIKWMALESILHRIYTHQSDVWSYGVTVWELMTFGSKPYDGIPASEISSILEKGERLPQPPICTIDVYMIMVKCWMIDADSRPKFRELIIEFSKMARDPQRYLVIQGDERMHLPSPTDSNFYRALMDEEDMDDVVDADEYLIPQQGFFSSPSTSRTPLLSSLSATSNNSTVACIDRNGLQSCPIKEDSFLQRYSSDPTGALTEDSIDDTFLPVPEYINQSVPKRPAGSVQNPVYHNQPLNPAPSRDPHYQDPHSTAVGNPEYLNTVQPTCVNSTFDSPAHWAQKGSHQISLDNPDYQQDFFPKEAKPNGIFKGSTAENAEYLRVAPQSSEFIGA
Procedure, shortened: as §1

A-431 = experiment: Cell proliferation assay, A-431 cells (GI50, Table 6); assay type: cell-based; settings: Homo sapiens, A-431, A-431 cells
EGFR (C797S L858R) = molecular target: T4, EGFR (C797S L858R) (Homo sapiens, UniProt P00533, C797S/L858R); experiment: Inhibition of EGFR (C797S L858R) biochemical enzymatic activity (HTRF); settings: 1 mM ATP
T4 construct: purchased signalchem
T4 sequence (P00533 25-1210 C797S/L858R): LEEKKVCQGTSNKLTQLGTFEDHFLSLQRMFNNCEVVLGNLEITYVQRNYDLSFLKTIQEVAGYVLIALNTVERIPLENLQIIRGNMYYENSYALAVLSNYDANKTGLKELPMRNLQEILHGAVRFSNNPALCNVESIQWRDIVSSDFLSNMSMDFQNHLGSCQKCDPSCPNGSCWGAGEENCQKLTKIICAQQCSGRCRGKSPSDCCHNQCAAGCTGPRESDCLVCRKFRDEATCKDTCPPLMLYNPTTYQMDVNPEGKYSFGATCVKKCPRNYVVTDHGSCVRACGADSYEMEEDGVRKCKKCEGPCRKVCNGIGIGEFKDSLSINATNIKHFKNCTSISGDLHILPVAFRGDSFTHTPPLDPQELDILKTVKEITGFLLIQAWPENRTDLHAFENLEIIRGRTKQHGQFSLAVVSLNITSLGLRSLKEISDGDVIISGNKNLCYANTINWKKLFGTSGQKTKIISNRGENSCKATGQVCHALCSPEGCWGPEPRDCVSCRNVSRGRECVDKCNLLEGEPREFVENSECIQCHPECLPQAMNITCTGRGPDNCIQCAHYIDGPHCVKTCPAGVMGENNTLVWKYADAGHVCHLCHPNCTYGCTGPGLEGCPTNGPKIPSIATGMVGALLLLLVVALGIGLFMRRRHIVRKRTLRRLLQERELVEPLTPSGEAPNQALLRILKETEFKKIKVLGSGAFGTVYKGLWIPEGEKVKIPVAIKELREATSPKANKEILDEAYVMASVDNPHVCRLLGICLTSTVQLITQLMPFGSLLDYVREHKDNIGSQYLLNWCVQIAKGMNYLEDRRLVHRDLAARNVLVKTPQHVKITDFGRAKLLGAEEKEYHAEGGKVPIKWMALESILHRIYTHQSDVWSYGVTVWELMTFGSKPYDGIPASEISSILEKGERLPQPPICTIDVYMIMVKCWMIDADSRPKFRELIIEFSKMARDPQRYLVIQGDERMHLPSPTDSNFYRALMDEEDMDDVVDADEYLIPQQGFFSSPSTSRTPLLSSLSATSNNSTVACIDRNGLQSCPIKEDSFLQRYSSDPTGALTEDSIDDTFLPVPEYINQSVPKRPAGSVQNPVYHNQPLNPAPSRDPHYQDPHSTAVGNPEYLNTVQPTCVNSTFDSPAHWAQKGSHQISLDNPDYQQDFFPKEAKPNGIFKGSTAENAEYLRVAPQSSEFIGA
Procedure, shortened: as §1

EGFR wild type = molecular target: T5, EGFR wild type (Homo sapiens, UniProt P00533); experiment: Inhibition of EGFR wild type biochemical enzymatic activity (HTRF); settings: 1 mM ATP
T5 construct: purchased Carna Bio
T5 sequence (P00533 25-1210): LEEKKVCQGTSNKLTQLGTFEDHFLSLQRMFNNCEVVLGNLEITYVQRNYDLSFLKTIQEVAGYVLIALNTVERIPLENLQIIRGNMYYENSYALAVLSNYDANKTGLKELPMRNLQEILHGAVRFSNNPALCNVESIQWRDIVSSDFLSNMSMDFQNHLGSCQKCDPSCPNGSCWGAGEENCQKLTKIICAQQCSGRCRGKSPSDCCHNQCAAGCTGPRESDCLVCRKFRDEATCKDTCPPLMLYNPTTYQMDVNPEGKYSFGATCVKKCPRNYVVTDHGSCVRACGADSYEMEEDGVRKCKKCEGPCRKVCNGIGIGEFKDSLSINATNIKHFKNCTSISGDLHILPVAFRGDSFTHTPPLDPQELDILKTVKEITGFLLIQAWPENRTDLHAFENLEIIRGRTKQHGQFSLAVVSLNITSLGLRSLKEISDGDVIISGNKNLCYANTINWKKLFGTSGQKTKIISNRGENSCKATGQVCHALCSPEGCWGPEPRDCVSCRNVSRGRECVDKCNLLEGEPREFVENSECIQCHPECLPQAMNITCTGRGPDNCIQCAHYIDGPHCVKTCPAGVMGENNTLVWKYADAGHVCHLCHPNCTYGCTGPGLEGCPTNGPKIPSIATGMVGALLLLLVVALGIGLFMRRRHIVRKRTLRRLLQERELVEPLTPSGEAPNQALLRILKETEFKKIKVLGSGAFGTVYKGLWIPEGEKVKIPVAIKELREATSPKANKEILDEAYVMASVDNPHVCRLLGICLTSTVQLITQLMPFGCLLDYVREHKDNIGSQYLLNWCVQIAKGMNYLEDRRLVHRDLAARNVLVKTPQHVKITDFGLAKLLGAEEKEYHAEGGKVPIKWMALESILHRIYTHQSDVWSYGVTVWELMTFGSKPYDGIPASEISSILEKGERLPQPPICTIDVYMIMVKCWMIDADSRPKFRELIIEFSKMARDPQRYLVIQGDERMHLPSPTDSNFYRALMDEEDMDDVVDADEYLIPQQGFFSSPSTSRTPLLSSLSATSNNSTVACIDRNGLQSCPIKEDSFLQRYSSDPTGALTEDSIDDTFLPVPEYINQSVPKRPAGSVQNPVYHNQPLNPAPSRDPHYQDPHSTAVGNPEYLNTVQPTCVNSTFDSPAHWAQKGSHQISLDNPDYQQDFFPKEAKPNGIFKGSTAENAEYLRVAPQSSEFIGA
Procedure, shortened: as §1

[1] = molecular target: T6, EGFR[T790M/C797S/d746-750] (Homo sapiens, UniProt P00533, C797S/DEL746-750/T790M); experiment: Inhibition of EGFR[T790M/C797S/d746-750] biochemical enzymatic activity (HTRF)
T6 construct: purchased Carna Bio
Procedure, shortened: as §1

EGFR[T790M/C797S/L858R] = molecular target: T7, EGFR[T790M/C797S/L858R] (Homo sapiens, UniProt P00533, C797S/L858R/T790M); experiment: Inhibition of EGFR[T790M/C797S/L858R] biochemical enzymatic activity (HTRF); settings: 1 mM ATP
T7 construct: purchased Carna Bio
Procedure, shortened: as §1

EGFR Exon19Del/T790M = molecular target: T8, EGFR Exon19Del/T790M (Homo sapiens, UniProt P00533, DEL746-750/T790M); experiment: Inhibition of EGFR Exon19Del/T790M biochemical enzymatic activity (HTRF); settings: 1 mM ATP
T8 construct: purchased Carna Bio
Procedure, shortened: as §1

[2] = test system: Ba/F3 cells expressing EGFR mutations; experiment: Cell proliferation assay, Ba/F3 cells expressing EGFR mutations (CellTiter-Glo, 72 hours); assay type: cell-based; settings: Mus musculus, BaF3, 72 h
Procedure, shortened: (§2)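 Ba/F3 cells (5000/well) and PC-9 cells (500/well, RPMI1640 with 10% FBS) were plated overnight and then dosed with a compound concentration series. Viable cells were read at day 0 (G0) and after treatment (G3). GI50 came from curve fits of G0-corrected proliferation relative to DMSO.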

EGFR L858R/T790M = molecular target: T9, EGFR L858R/T790M (Homo sapiens, UniProt P00533, L858R/T790M); experiment: Inhibition of EGFR L858R/T790M biochemical enzymatic activity (HTRF); settings: 1 mM ATP
T9 construct: purchased Carna Bio
Procedure, shortened: as §1

PC-9 = experiment: Cell proliferation assay, PC-9 cells (CellTiter-Glo, 72 hours); assay type: cell-based; settings: Homo sapiens, PC-9, 72 h, PC9 cells, read-out: GI50 PC9
Procedure, shortened: as §2

[3] = EGFR Del19-C797S, 1 h, room temperature, read-out: IC50 (nM) @Del19-C797S
[4] = 1 h, room temperature, read-out: IC50 (nM) @L858R
[5] = EGFR Del19, 1 mM ATP, 1 h, room temperature
[6] = EGFR L858-C797S, 1 h, room temperature, read-out: IC50 (nM) @L858-C797S
[7] = EGFR WT, 1 h, room temperature, read-out: IC50 (nM) @WT
[8] = EGFR T790M-C797S-Del19, 1 mM ATP, 1 h, room temperature, read-out: IC50 (nM) @T790M - C797S - Del19
[9] = EGFR T790M-C797S-L858R, 1 h, room temperature, read-out: IC50 (nM) @T790M- C797S - L858R
[10] = EGFR Del19-T790M, 1 h, room temperature, read-out: IC50 (nM) @Del19-T790M
[11] = BaF3 cells, EGFR DEL19 - C797S, read-out: GI50 DEL19 - C797S/BaF3
[12] = BaF3 cells, EGFR DEL19 - T790-C797S, read-out: GI50 DEL19 - T790-C797S/BaF3
[13] = BaF3 cells, EGFR L858R - C797S, read-out: GI50 L858R - C797S/BaF3
[14] = BaF3 cells, EGFR L858R - T790-C797S, read-out: GI50 L858R - T790-C797S/BaF3
[15] = BaF3 cells, EGFR L858R - T790M, read-out: GI50 L858R - T790M/BaF3
[16] = BaF3 cells, EGFR L858R, read-out: GI50 L858R/BaF3
[17] = EGFR DEL19 - T790M, read-out: GI50 DEL19 - T790M
[18] = EGFR L858R-T790M, 1 h, room temperature, read-out: IC50 (nM) @L858R-T790M

IC50 (EGFR (d746-750 C797S); [3]) | IC50 (EGFR L858R; [4]) | IC50 (EGFR Exon19Del; [5]) | GI50 (A-431) | IC50 (EGFR (C797S L858R); [6]) | IC50 (EGFR wild type; [7]) | IC50 [1, 8] | IC50 (EGFR[T790M/C797S/L858R]; [9]) | IC50 (EGFR Exon19Del/T790M; [10]) | GI50 [2, 11] | GI50 [2, 12] | GI50 [2, 13] | GI50 [2, 14] | GI50 [2, 15] | GI50 [2, 16] | GI50 [2, 17] | IC50 (EGFR L858R/T790M; [18]) | GI50 (PC-9) | Structure (SMILES) | further results
48 nM | 440 nM | 108 nM | 2820 nM | 195 nM | > 5000 nM | 4.1 nM | 7.1 nM | 5.1 nM | 62 nM | 31 nM | 66 nM | 9.1 nM | 7 nM | 144 nM | 41 nM | 13 nM | 115 nM | Cc1cc2cc(n1)-c1cnn(C)c1OCCN(CC(F)F)CCn1c(nc3ccccc31)NC2=O [Example B5] | 
112 nM | 1090 nM | 197 nM | 2830 nM | 390 nM | > 5000 nM | 3.6 nM | 3.1 nM | 5.2 nM | 62 nM | 42 nM | 69 nM | 7.7 nM | 16 nM | 35 nM | 48 nM | 9 nM | 145 nM | Cc1cc2cc(n1)-c1cnn(C3CC3)c1OCCN(CC(F)(F)F)CCn1c(nc3ccccc31)NC2=O [Example B6, 5-cyclopropyl-26-methyl-10-(2,2,2-trifluoroethyl)-7-oxa-4,5,10,13,20,22,27-heptaazapentacyclo[22.3.1.0^{2,6}.0^{13,21}.0^{14,19}]octacosa-1(27),2(6),3,14,16,18,20,24(28),25-nonaen-23-one] | 
 |  |  | 2710 nM |  |  |  |  |  | 4.8 nM | 2.1 nM | 53 nM | 2.4 nM | 8.6 nM | 72 nM | 2.6 nM |  | 63 nM | Cc1cc2cc(n1)-c1cnn(C)c1OCCN1CC3CCC(C3)(C1)n1c(nc3ccccc31)NC2=O (stereo not drawn) [Example B8B, 15,21-dimethyl-23-oxa-2,9,11,16,20,21,26-heptaazaheptacyclo[24.4.1.1^{1,28}.1^{13,17}.0^{2,10}.0^{3,8}.0^{18,22}]tritriaconta-3,5,7,9,13,15,17(33),18(22),19-nonaen-12-one] | IC50 (EGFR (d746-750 C797S); EGFR (d746-750 C797S), 1 h at room temperature, read-out: IC50 @Del19-C797S): 4.2 nM; IC50 (EGFR L858R; 1 h at room temperature, read-out: IC50 @L858R): 469 nM; IC50 (EGFR Exon19Del; EGFR Exon19Del, 1 mM ATP, 1 h at room temperature): 14 nM; IC50 (EGFR (C797S L858R); EGFR (C797S L858R), 1 h at room temperature, read-out: IC50 @L858-C797S): 200 nM; IC50 (EGFR wild type; EGFR wild type, 1 h at room temperature, read-out: IC50 @WT): > 5000 nM; IC50 ([1]; EGFR[T790M/C797S/d746-750], 1 mM ATP, 1 h at room temperature, read-out: IC50 @T790M - C797S - Del19): 0.98 nM; IC50 (EGFR[T790M/C797S/L858R]; EGFR[T790M/C797S/L858R], 1 h at room temperature, read-out: IC50 @T790M- C797S - L858R): 1 nM; IC50 (EGFR Exon19Del/T790M; EGFR Exon19Del/T790M, 1 h at room temperature, read-out: IC50 @Del19-T790M): 0.95 nM; IC50 (EGFR L858R/T790M; EGFR L858R/T790M, 1 h at room temperature, read-out: IC50 @L858R-T790M): 1.3 nM
